Data: patent US8987195B2 (priority 2012, dated 2015)
Like-named read-outs stand apart in the source and are kept apart here.

Legend:
HCV genotype 1b replicon = assay: HCV replicon assay, genotype 1b replicon EC50; type: cell-based, Hepatitis C virus; details: Hepatitis C virus, genotype 1b replicon, read-out: EC50 [gt-1b]
Method in brief: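 Readout was replicon RNA copy number, by 32P-probe protection or TaqMan normalized to cellular cyclophilin A RNA, or luciferase activity for luciferase:Neo^r fusion lines. Cells were exposed to serially diluted compound for 24-48 hours without G418, then washed and lysed. EC50 derived from four-parameter fit relative to DMSO.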

[1] = target: HCV NS3/4A protease genotype 1b (Hepatitis C virus genotype 1b, UniProt P26663); assay: HCV NS3/4A protease time-resolved fluorescence (TRF) assay, Ki against genotype 1b; type: biochemical; details: IC50 [gt-1b] (nM), NS3/4A genotype 1b, enzyme 0.2 nM
Method in brief: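 Enzyme 0.2 nM 1b / 0.4 nM A156T / 0.025 nM 3a; 30 min preinc. w/ cpd; 25 nM TRF peptide; 2.5 h RT; ex 340/em 615 time-delayed; 4-param IC50 → Ki = IC50/(1+[S]/KM).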

Compound	EC50 (HCV genotype 1b replicon; K+ salt)	IC50 ([1]; K+ salt)	EC50 (HCV genotype 1b replicon)	IC50 [1]
COc1ccc2nc(C)c3c(c2c1)CC[C@]1(C[C@H]2C(=O)N[C@]4(C(=O)NS(=O)(=O)C5(C)CC5)C[C@H]4/C=C\CCCCC[C@H](NC(=O)OC(C)(C)C(F)(F)F)C(=O)N2C1)O3 [Example 254, 1,1,1-trifluoro-2-methylpropan-2-yl [(2R,6S,12Z,13aS,14aR,16aS)-9′-methoxy-5′-methyl-14a-{[(1-methylcyclopropyl)sulfonyl]carbamoyl}-5,16-dioxo-1,1′,2′,5,6,7,8,9,10,11,13a,14,14a,15,16,16a-hexadecahydrospiro[cyclopropa[e]pyrrolo[1,2-a][1,4]diazacyclopentadecine-2,3′-pyrano[2,3-c]quinolin]-6-yl]carbamate]	1.58 nM	0.01 nM	–	–
Cc1nc2ccc(OC(F)F)cc2c2c1O[C@]1(CC2)C[C@H]2C(=O)N[C@]3(C(=O)NS(=O)(=O)C4(C)CC4)C[C@H]3/C=C\CCCCC[C@H](NC(=O)OC(C)(C)C)C(=O)N2C1 [Example 256, tert-butyl [(2R,6S,12Z,13aS,14aR,16aS)-9′-(difluoromethoxy)-5′-methyl-14a-{[(1-methylcyclopropyl)sulfonyl]carbamoyl}-5,16-dioxo-1,1′,2′,5,6,7,8,9,10,11,13a,14,14a,15,16,16a-hexadecahydrospiro[cyclopropa[e]pyrrolo[1,2-a][1,4]diazacyclopentadecine-2,3′-pyrano[2,3-c]quinolin]-6-yl]carbamate]	–	–	3.08 nM	0.005 nM
Cc1nc2ccccc2c2c1O[C@]1(CC2)C[C@H]2C(=O)N[C@]3(C(=O)NS(=O)(=O)C4(C)CC4)C[C@H]3/C=C\CCCCC[C@H](NC(=O)OC3C[C@H]4C=C[C@@H]3C4)C(=O)N2C1 (stereo partly drawn) [Example 257, (1S,4S)-bicyclo[2.2.1]hept-5-en-2-yl [(2R,6S,12Z,13aS,14aR,16aS)-5′-methyl-14a-{[(1-methylcyclopropyl)sulfonyl]carbamoyl}-5,16-dioxo-1,1′,2′,5,6,7,8,9,10,11,13a,14,14a,15,16,16a-hexadecahydrospiro[cyclopropa[e]pyrrolo[1,2-a][1,4]diazacyclopentadecine-2,3′-pyrano[2,3-c]quinolin]-6-yl]carbamate]	–	–	3.25 nM	0.018 nM
Cc1nc2ccccc2c2c1O[C@]1(CC2)C[C@H]2C(=O)N[C@]3(C(=O)NS(=O)(=O)C4(C)CC4)C[C@H]3/C=C\CCCCC[C@H](NC(=O)OC(C(F)(F)F)C(F)(F)F)C(=O)N2C1 [Example 258, 1,1,1,3,3,3-hexafluoropropan-2-yl [(2R,6S,12Z,13aS,14aR,16aS)-5′-methyl-14a-{[(1-methylcyclopropyl)sulfonyl]carbamoyl}-5,16-dioxo-1,1′,2′,5,6,7,8,9,10,11,13a,14,14a,15,16,16a-hexadecahydrospiro[cyclopropa[e]pyrrolo[1,2-a][1,4]diazacyclopentadecine-2,3′-pyrano[2,3-c]quinolin]-6-yl]carbamate]	–	–	717 nM	0.022 nM
COc1ccc2nc(C)c3c(c2c1)C(F)(F)C[C@]1(C[C@H]2C(=O)N[C@]4(C(=O)NS(=O)(=O)C5(C)CC5)C[C@H]4/C=C\CCCCC[C@H](NC(=O)OC4CCCC4)C(=O)N2C1)O3 [Example 260, cyclopentyl [(2S,6S,12Z,13aS,14aR,16aS)-1′,1′-difluoro-9′-methoxy-5′-methyl-14a-{[(1-methylcyclopropyl)sulfonyl]carbamoyl}-5,16-dioxo-1,1′,2′,5,6,7,8,9,10,11,13a,14,14a,15,16,16a-hexadecahydrospiro[cyclopropa[e]pyrrolo[1,2-a][1,4]diazacyclopentadecine-2,3′-pyrano[2,3-c]quinolin]-6-yl]carbamate]	–	–	5.22 nM	0.006 nM
